Measurements from the supplement of paper PMC4862054.

How the values were obtained:
Details in all cases: incubation time: 72 h
DU-4475 [1] = experiment: drug sensitivity score (DSS), CellTiter-Glo (DSS (AUC-based score)); higher = stronger drug effect (viability inhibition or cytotoxicity); extreme values may be limits of the assay
Method in brief: (§1)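 Plates with 384 wells held compound at 5 concentrations in 10-fold steps over a 10,000-fold range specific to each compound. Breast cancer cell lines were added in 20 µl suspension and incubated 72 h, then read for CellTox Green and CellTiter-Glo signals, with each plate normalised to 0.1 % DMSO and a positive kill control. The drug sensitivity score is based on the area under the fitted dose-response curve.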

BT-549 [2] = experiment: as above
Method in brief: as §1

HCC1143 [3] = experiment: as above
Method in brief: as §1

MDA-MB-436 = experiment: as above
Method in brief: as §1

MDA-MB-231 = experiment: as above
Method in brief: as §1

MDA-MB-468 [4] = experiment: as above
Method in brief: as §1

CAL-51 [5] = experiment: as above
Method in brief: as §1

CAL-120 [6] = experiment: as above
Method in brief: as §1

HCC1937 = experiment: as above
Method in brief: as §1

CAL-148 = experiment: as above
Method in brief: as §1

BT-474 = experiment: as above
Method in brief: as §1

HCC1599 [7] = experiment: as above
Method in brief: as §1

MFM-223 = experiment: as above
Method in brief: as §1

CAL-85-1 = experiment: as above
Method in brief: as §1

MCF-10A = experiment: as above
Method in brief: as §1

Hs578T = experiment: as above
Method in brief: as §1

HDQ-P1 = experiment: as above
Method in brief: as §1

MDA-MB-453 [8] = experiment: as above
Method in brief: as §1

SK-BR-3 = experiment: as above
Method in brief: as §1

DU-4475 [9] = experiment: drug sensitivity score (DSS), CellTox Green (DSS (AUC-based score)); higher = stronger drug effect (viability inhibition or cytotoxicity); extreme values may be limits of the assay
Method in brief: as §1

BT-549 [10] = experiment: as above
Method in brief: as §1

HCC1143 [11] = experiment: as above
Method in brief: as §1

MDA-MB-468 [12] = experiment: as above
Method in brief: as §1

CAL-51 [13] = experiment: as above
Method in brief: as §1

CAL-120 [14] = experiment: as above
Method in brief: as §1

HCC1599 [15] = experiment: as above
Method in brief: as §1

MDA-MB-453 [16] = experiment: as above
Method in brief: as §1

Compound	drug sensitivity score (DU-4475 [1])	drug sensitivity score (BT-549 [2])	drug sensitivity score (HCC1143 [3])	drug sensitivity score (MDA-MB-436)	drug sensitivity score (MDA-MB-231)	drug sensitivity score (MDA-MB-468 [4])	drug sensitivity score (CAL-51 [5])	drug sensitivity score (CAL-120 [6])	drug sensitivity score (HCC1937)	drug sensitivity score (CAL-148)	drug sensitivity score (BT-474)	drug sensitivity score (HCC1599 [7])	drug sensitivity score (MFM-223)	drug sensitivity score (CAL-85-1)	drug sensitivity score (MCF-10A)	drug sensitivity score (Hs578T)	drug sensitivity score (HDQ-P1)	drug sensitivity score (MDA-MB-453 [8])	drug sensitivity score (SK-BR-3)	drug sensitivity score (DU-4475 [9])	drug sensitivity score (BT-549 [10])	drug sensitivity score (HCC1143 [11])	drug sensitivity score (MDA-MB-468 [12])	drug sensitivity score (CAL-51 [13])	drug sensitivity score (CAL-120 [14])	drug sensitivity score (HCC1599 [15])	drug sensitivity score (MDA-MB-453 [16])
CN1CCC(COc2cnc(-c3cccc(Cn4nc(-c5cccc(C#N)c5)ccc4=O)c3)nc2)CC1	0	0	0	1.23	0	0	0	0	0	0	0	0	0	0	0	0	0	0	0	0	0	0	0	0	0	0	0
CN(C)C/C=C/C(=O)Nc1cc2c(Nc3ccc(F)c(Cl)c3)ncnc2cc1O[C@H]1CCOC1 [Afatinib]	0	0.0448	0	0	0	2.66	0	0	0	3.9	0	0	0	6.39	17.4	0	8.44	4.69	17.8	0	0	1.18	0	0	0	0	0
COc1cc(Nc2ncc3c(n2)-c2ccc(Cl)cc2C(c2c(F)cccc2OC)=NC3)ccc1C(=O)O [Alisertib]	9.45	12.7	8.44	11.8	4.67	23.4	12.8	5.92	3.43	7.08	8.02	0	10.8	0	0	5.73	3.21	0	0	0	5.31	0	32.7	27.9	0	0	0
CN1CC[C@H](c2c(O)cc(O)c3c(=O)cc(-c4ccccc4Cl)oc23)[C@H](O)C1 [Alvocidib]	17.3	17.7	14.9	18.8	19.1	18.1	19	14.1	13.2	11.4	16.9	14.7	16.1	16.3	16.2	16.2	16.5	12.8	19.8	0	2.81	0	0	4.44	1.81	0	0
Nc1nc(Cl)nc2c1ncn2[C@H]1C[C@H](O)[C@@H](CO)O1 [Cladribine]	0	6.43	0	0	0	0.301	0	1.39	0	0	0	0	0	0	0	0	0	0	0	0	0	1.86	14.3	0	0	0	0
Nc1ccn([C@@H]2O[C@H](CO)[C@@H](O)[C@@H]2O)c(=O)n1 [Cytarabine]	3.25	7.56	3.36	10.5	0	4.8	13.4	0.601	0	11.3	0.361	0	0	0	0	2.8	1.06	0	12.2	0	0	0	0	13.1	0	0	0
Cc1c2oc3c(C)ccc(C(=O)N[C@@H]4C(=O)N[C@H](C(C)C)C(=O)N5CCC[C@H]5C(=O)N(C)CC(=O)N(C)[C@@H](C(C)C)C(=O)O[C@@H]4C)c3nc-2c(C(=O)N[C@@H]2C(=O)N[C@H](C(C)C)C(=O)N3CCC[C@H]3C(=O)N(C)CC(=O)N(C)[C@@H](C(C)C)C(=O)O[C@@H]2C)c(N)c1=O [Dactinomycin]	30.3	31.3	22.4	21	22.4	32.2	26.4	17.8	21.7	25.7	21	16.4	15	22.8	23.6	22.5	24.4	18.7	21.3	0	6.35	1.67	10.7	22.9	0	0	0
COc1cccc2c1C(=O)c1c(O)c3c(c(O)c1C2=O)C[C@@](O)(C(=O)CO)C[C@@H]3O[C@H]1C[C@H](N)[C@H](O)[C@H](C)O1 [Doxorubicin]	8.65	8.09	1.04	4.44	4.21	9.32	12.4	1.5	0	8.35	7.08	1.68	0	2.97	1.13	2.18	2.13	2.56	6.19	0	0	0	5.83	10.9	0	0	0
Cc1ccc(F)c(NC(=O)Nc2ccc(-c3cccc4[nH]nc(N)c34)cc2)c1 [Linifanib]	0	0	0	0	0	0	1.94	0	0	0	0	0	0	0	0	0	0	0	0	0	0	0	0	0	0	0	0
CC(=O)O[C@]1(C(C)=O)CC[C@H]2[C@@H]3C=C(C)C4=CC(=O)CC[C@]4(C)[C@H]3CC[C@@]21C [Megestrol acetate]	0	0	0	0	0	0	0	0	0	0	0	0	0	0	0	0	0	0	0	0	0	0	0	0	0	0	0
S=c1[nH]cnc2nc[nH]c12 [Mercaptopurine]	4	0	0	0.565	7.35	0	0	4.08	8.73	0	5.51	5.32	0	1.24	0	6.04	9.67	0	0	0	0	0	0	0	0	0	0
Clc1ccc(C(c2ccccc2Cl)C(Cl)Cl)cc1 (centres undefined) [Mitotane]	0	0	0	0	0	0	0	0	0	0	0	0	0	0	0	0	0	0	0	0	0	2.11	0	0	0	0	0
